From patent publication US12162879B2, “Pyridopyrimidine derivative, preparation method therefor and medical use thereof” (Jiangsu Hengrui Medicine Co., Ltd., priority 2018, dated 2024)

How the values were obtained:
CYP2D6 = CYP2D6 (Homo sapiens (Human), UniProt P10635); assay: Inhibition of enzyme activity of CYP2D6 in human liver microsome; type: in vitro ADME; conditions: dextromethorphan probe substrate, 30 minutes, read-out: IC50 of the inhibition effect on CYP2D6 enzyme
Experimental: The effect of the compounds of the present invention on the enzyme activity of CYP2D6 in human liver microsome was determined by the following experimental method.
• 1. Phosphate buffer solution (PBS); • 2. NADPH (Sigma N-1630); • 3. Human liver microsome (Corning Gentest); • 4. ABI QTrap 4000 liquid chromatograph/mass spectrometer (AB Sciex); • 5. Inertsil C8-3 column, 4.6×50 mm, 5 μm (Dikma Technologies Inc., USA); and • 6. CYP probe substrate (20 μM dextromethorphan, SIGMA Q0750) and positive control inhibitor (quinidine, SIGMA D9684). II. Experimental Procedures
100 mM PBS buffer was formulated, which was then used to formulate 2.5 mg/ml human microsome solution and 5 mM NADPH solution. The 5× concentration of the compound working solution was diluted with PBS in gradients (150, 50, 15, 5, 1.5, 0.15, 0.015, 0 μM). The 5× concentration of quinidine working solution was diluted with PBS in gradients (150, 50, 15, 5, 1.5, 0.15, 0.015, 0 μM). Dextromethorphan working solution was diluted with PBS to a concentration of 20 μM.
20 μl of 2.5 mg/ml microsome solution, 20 μl of 20 μM dextromethorphan working solution, 20 μl of MgCl2 solution and 20 μl of the compound working solution (150, 50, 15, 5, 1.5, 0.15, 0.015, 0 μM, different reaction systems for each concentration) were mixed well. For the positive control group, the compound was replaced with the same concentration of quinidine. The mixture together with 5 mM NADPH solution was pre-incubated at 37° C. for 5 minutes. After 5 minutes, 20 μl of NADPH was added to each well, the reaction was initiated, and the plate was incubated for 30 minutes. All the incubated samples were present in duplicate. After 30 minutes, 250 μl of acetonitrile containing internal standard (100 ng/ml camptothecin) was added to all samples, mixed well, shaken at 800 rpm for 10 minutes, and then centrifuged at 3700 rpm for 10 minutes. 80 μl of the supernatant was taken and analyzed by LC-MS/MS.
The data was calculated by Graphpad Prism to obtain the IC50 values of the inhibition effect of the present compounds on CYP2D6 enzyme, which are shown in Table 3.

human TLR8 = human TLR8 (Homo sapiens (Human), UniProt Q9NR97); assay: Agonist activity on human TLR8 in HEK-Blue hTLR8 stably transfected cells; type: cell-based; conditions: 16 hours, OD 620 nm
Experimental: The agonist effect of the compounds of the present invention on hTLR8 expressed by the HEK-Blue™ hTLR8 stably transfected cells was determined by the following experimental method.
(§1) • 1. DMEM(Gibco, 10564-029); • 2. Fetal bovine serum (GIBCO, 10099); • 3. Trypan blue solution (Sigma, T8154-100 ML); • 4. Flexstation 3 multi-function microplate reader (Molecular Devices); • 5. HEK-Blue™ hTLR8 cell line (InvivoGen, hkb-hTLR8), or HEK-Blue™ hTLR7 cell line (InvivoGen, hkb-hTLR7); • 6. HEK-Blue detection reagent (InvivoGen, hb-det3); and • 7. Phosphate buffer solution (PBS) pH 7.4 (Shanghai Basalmedia Technologies Co., Ltd., B320). II. Experimental Procedures a. Determination of Agonist Activity on Human TLR8
(§2) A bag of HEK-Blue detection dry powder was dissolved in 50 ml of water free of endotoxin, and the solution was then placed in an incubator at 37° C. for 10 minutes followed by sterile filtration to prepare a HEK-Blue detection medium. The compound was firstly formulated into a 20 mM stock solution, then diluted with pure DMSO to a maximum concentration of 6×10^6 nM, and a total of 10 points were obtained by a 3-fold gradient dilution. The above formulated compound was firstly diluted 20-fold with the medium, then 20 μl of the diluted compound was added to each well.
(§3) The supernate was removed from the HEK-Blue™ hTLR8 cells, to which 2-5 ml of pre-warmed PBS was then added. The cells were placed in an incubator for 1-2 minutes, gently pipetted, and counted by trypan blue staining. The cells were re-suspended in the HEK-Blue detection medium to adjust the concentration to 2.2×10^5 cells/ml. 180 μl of cells was added to the above 96-well plate comprising 20 μl of the compound, and incubated at 37° C. for 16 hours.
(§4) The corresponding OD values were obtained by a microplate reader at a wavelength of 620 nm, and the EC50 values of the compounds were calculated by Graphpad Prism.

human TLR7 = human TLR7 (Homo sapiens (Human), UniProt Q9NYK1); assay: Agonist activity on human TLR7 in HEK-Blue hTLR7 cells; type: cell-based; conditions: 16 hours, OD 620 nm
Experimental: as §1, §2
as §3, with “hTLR7” for “hTLR8”
as §4

human TLR7, sequence (Q9NYK1 27-1049): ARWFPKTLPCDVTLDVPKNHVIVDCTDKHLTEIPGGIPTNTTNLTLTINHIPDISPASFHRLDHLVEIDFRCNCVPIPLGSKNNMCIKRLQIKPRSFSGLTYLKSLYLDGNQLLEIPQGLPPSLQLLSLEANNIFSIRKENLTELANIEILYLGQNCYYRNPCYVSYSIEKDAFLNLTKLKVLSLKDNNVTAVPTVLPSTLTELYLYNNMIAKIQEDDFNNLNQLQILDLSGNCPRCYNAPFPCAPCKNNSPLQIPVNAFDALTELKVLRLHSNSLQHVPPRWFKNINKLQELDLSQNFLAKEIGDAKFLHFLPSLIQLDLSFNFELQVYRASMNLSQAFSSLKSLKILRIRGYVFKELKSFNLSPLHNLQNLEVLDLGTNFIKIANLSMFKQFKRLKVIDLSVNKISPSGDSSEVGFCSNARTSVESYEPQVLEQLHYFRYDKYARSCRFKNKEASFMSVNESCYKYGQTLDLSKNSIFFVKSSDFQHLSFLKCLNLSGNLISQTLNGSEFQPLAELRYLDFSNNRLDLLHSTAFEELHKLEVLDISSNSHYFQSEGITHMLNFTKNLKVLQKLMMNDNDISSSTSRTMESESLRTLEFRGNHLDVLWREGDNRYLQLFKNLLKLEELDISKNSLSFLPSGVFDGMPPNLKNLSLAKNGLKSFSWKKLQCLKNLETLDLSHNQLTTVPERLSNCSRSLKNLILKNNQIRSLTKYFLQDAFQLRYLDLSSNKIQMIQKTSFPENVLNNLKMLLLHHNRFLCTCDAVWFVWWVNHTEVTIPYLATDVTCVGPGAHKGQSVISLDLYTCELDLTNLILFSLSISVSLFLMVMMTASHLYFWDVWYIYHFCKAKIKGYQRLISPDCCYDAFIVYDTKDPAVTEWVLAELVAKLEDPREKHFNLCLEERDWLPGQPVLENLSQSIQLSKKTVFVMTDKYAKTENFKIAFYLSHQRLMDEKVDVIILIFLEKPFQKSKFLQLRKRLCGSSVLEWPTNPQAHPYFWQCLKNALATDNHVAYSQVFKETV
CYP2D6, sequence (P10635 whole entry): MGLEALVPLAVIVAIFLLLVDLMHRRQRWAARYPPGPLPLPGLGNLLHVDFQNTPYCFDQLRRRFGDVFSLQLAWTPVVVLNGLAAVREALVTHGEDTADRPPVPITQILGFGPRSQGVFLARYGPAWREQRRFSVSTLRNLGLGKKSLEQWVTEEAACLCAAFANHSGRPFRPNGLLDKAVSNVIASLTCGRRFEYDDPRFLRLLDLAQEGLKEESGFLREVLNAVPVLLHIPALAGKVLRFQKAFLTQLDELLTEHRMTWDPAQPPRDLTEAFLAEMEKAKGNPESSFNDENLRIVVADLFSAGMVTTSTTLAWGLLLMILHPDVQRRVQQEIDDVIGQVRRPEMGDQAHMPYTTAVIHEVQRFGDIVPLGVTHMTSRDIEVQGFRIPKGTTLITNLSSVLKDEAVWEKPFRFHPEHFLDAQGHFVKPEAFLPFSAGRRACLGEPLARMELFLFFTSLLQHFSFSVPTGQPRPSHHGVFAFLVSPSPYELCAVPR
human TLR8, sequence (Q9NR97 27-1041): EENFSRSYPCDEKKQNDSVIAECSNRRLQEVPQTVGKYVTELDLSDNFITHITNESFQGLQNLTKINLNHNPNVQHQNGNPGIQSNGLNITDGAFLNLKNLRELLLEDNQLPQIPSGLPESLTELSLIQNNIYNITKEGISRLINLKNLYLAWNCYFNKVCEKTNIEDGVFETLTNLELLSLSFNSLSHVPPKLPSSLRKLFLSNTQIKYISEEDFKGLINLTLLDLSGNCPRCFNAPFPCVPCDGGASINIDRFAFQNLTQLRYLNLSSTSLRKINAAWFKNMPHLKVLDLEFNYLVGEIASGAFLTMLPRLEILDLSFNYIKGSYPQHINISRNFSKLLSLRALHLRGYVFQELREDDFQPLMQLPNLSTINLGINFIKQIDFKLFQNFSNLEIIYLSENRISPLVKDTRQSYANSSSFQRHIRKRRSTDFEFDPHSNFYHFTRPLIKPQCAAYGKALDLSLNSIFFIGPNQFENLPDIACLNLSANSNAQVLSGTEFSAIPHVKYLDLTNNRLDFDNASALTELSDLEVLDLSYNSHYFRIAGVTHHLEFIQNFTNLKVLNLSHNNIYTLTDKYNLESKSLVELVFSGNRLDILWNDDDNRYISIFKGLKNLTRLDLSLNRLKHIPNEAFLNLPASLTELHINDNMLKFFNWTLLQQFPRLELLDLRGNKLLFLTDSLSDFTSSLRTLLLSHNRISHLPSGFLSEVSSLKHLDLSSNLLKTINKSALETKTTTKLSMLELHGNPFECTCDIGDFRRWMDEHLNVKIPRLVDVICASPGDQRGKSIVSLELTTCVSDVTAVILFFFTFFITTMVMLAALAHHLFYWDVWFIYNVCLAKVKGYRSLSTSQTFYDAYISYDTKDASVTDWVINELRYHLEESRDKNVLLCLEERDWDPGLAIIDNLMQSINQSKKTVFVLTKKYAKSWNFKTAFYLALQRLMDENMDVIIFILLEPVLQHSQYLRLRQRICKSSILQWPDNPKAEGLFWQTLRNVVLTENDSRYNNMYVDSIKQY

| SMILES | IC50 (CYP2D6) [nM] | EC50 (human TLR8) [nM] | Emax (human TLR8) [%] | EC50 (human TLR7) [nM] | Emax (human TLR7) [%] |
| --- | --- | --- | --- | --- | --- |
| CCCC[C@](C)(CO)Nc1nc(N)nc2cc(-c3cnc(C4CCN(C)CC4)nc3)cnc12 [Example 8, (R)-2-((2-Amino-7-(2-(1-methylpiperidin-4-yl)pyrimidin-5-yl)pyrido[3,2-d]pyrimidin-4-yl)amino)-2-methylhexan-1-ol] | > 30000 | 40 | 114 | > 19000 | 73 |
| CCCCC(C)(CO)Nc1nc(N)nc2cc(-c3ccc(CN4CCN(C)CC4)nc3)cnc12 (centres unmarked) [Example 5, 2-((2-Amino-7-(6-((4-methylpiperazin-1-yl)methyl)pyridin-3-yl)pyrido[3,2-d]pyrimidin-4-yl)amino)-2-methylhexan-1-ol] | > 30000 | 270 | 110 | > 30000 | 14 |

More lines, now with the values ahead:

| IC50 (CYP2D6) [nM] | EC50 (human TLR8) [nM] | Emax (human TLR8) [%] | EC50 (human TLR7) [nM] | Emax (human TLR7) [%] | SMILES |
| --- | --- | --- | --- | --- | --- |
| > 30000 | 100 | 107 | > 30000 | 14 | CCCC[C@](C)(CO)Nc1nc(N)nc2cc(-c3ccc(CN4CCN(C)CC4)nc3)cnc12 [Example 6, (R)-2-((2-Amino-7-(6-((4-methylpiperazin-1-yl)methyl)pyridin-3-yl)pyrido[3,2-d]pyrimidin-4-yl)amino)-2-methylhexan-1-ol] |
| > 30000 | 80 | 106 | – | – | CCCC[C@](C)(CO)Nc1nc(N)nc2cc(-c3ccc(CN4CCCC4)nc3)cnc12 [Example 2, (R)-2-((2-Amino-7-(6-(pyrrolidin-1-ylmethyl)pyridin-3-yl)pyrido[3,2-d]pyrimidin-4-yl)amino)-2-methylhexan-1-ol] |
| > 30000 | 100 | 97 | > 30000 | 12 | CCCC[C@](C)(CO)Nc1nc(N)nc2cc(-c3ccc(C4CCN(C)CC4)nc3)cnc12 [Example 4, (R)-2-((2-Amino-7-(6-(1-methylpiperidin-4-yl)pyridin-3-yl)pyrido[3,2-d]pyrimidin-4-yl)amino)-2-methylhexan-1-ol] |
